# According to patent US20180030074A1, “PHOSPHONIUM COMPOUND AND PRODUCTION METHOD THEREFOR” (priority 2014, published 2018):
# Columns and labels:
# [1] = tested on: myocardium; test: Mouse PET/CT imaging; format: in vivo, Slc:ICR mice; settings: mice, i.v. caudal vein; for accumulation of radioactivity in the myocardium (PET/CT images): imaged 60 minutes after administration for 10 minutes; for contrast of myocardial images: PET/CT 60 minutes after administration
# Description: The animals used in this measurement were 6-10-week-old male Slc:ICR mice (from Japan SLC, Inc.). […] Then, the mice were fixed under isoflurane anesthesia (2%, 1.5 mL/min.), and after 60 minutes of the administration, the whole bodies of the mice were imaged by small-animal PET (ClairvivoPET produced by Shimadzu Corporation) for 10 minutes. Subsequently, while the mice were kept fixed, their whole bodies were imaged by small-animal CT (ClairvivoCT produced by Shimadzu Corporation). The PET data were reconstructed by 3D-DRAMA, and the pixel values of the obtained PET images were converted to SUV to generate SUV images. These images were fused with CT images to produce fused images.
# [2] = Mouse biodistribution study; format: in vivo, Slc:ICR mice; settings: mice; for accumulation of labeled compound in the myocardium versus adjacent organs: i.v., 60 or 120 minutes after administration, gamma counter, n=4; for ratio of radioactivity accumulations in the myocardium and liver (heart/liver ratio): time point of 60 minutes
# Description: (§1) The animals used in this measurement were 6-8-week-old male Slc:ICR mice (from Japan SLC, Inc.) (n=4). Each of different physiological saline solutions of the [^18F]-labeled compounds (200 μL, 370-740 kBq) used in this measurement was administered to the awake mice via the caudal vein, and after 60 or 120 minutes of the administration, the mice were euthanized by cervical dislocation under isoflurane anesthesia. After blood was sampled from the heart immediately, the heart, lung, liver, spleen, kidney, small intestine, thigh muscle, thigh bone, and brain were excised and measured for amount of radioactivity by a γ counter. The weights of the excised organs were measured, and on that basis, the accumulation rates per gram of the organs with respect to dose (% dose/g of organ, % ID/g) were calculated as indicators for accumulation of the chemical compounds used (n=4).
# [3] = Rat biodistribution study; format: in vivo, Wistar rats; settings: rats
# Description: as §1
# The biodistribution study of [^18F]TAP-018 in rats was conducted by the same procedure as in Test Example 2 using 6-week-old male Wistar rats (from Japan SLC, Inc.) (n=4). The results are summarized in a bar graph (FIG. 4). […] This value is about ten times higher than the value of 1.5 for [^18F]FBnTP which has been used as a gold standard, and is sufficiently higher than the value of 9.2 for [^18F]FTPP which is currently under clinical study.
# [4] = tested on: myocardium; test: Small-animal PET study in rats; format: in vivo, Wistar rats; settings: i.v., PET 0 to 120 minutes
# Description: The myocardial imaging study of [^18F]TAP-018 in rats was conducted using 6-week-old male Wistar rats. 200 μL (7.83-9.66 MBq) of a physiological saline solution of the test compound [^18F]TAP-018 was administered via the caudal vein to the rats fixed under isoflurane anesthesia (2%, 1.5 mL/min.), and then the whole bodies of the rats were imaged by small-animal PET at time points from 0 to 120 minutes after the administration. Subsequently, while the rats were kept fixed, their whole bodies were imaged by small-animal CT. The PET data were reconstructed by 3D-DRAMA, and the pixel values of the obtained PET images were converted to SUV to generate SUV images. These images were fused with CT images to produce fused images. Further, the locations of the myocardium, lung and liver were identified based on the fused images, and regions of interest (ROI) were drawn to calculate respective SUVavg values.
# [5] = background statement; cited from earlier work
# [6] = comparison values quoted without source or species; cited from earlier work
Structure (SMILES),ratio of radioactivity accumulations in the myocardium and liver (heart/liver ratio) [2],"accumulation in the heart ([3]; i.v., n=4)",heart/liver ratio ([3]; time point of 60 minutes),accumulation of radioactivity in the myocardium (PET/CT images) [1],accumulation of labeled compound in the myocardium versus adjacent organs [2],contrast of myocardial images [1],accumulation of radioactivity in the heart (radioactivity-time curve) [4],disappearance of radioactivity from the liver (radioactivity-time curve) [4],accumulation in liver relative to myocardium [5],heart/liver ratio (comparison values of reference agents) [6]
"[18F]c1ccc(C[P+](c2ccccc2)(c2ccccc2)c2ccccc2)cc1.[Br-] [[^18F]FBnTP, 4-[^18F]fluorobenzyl-triphenylphosphonium bromide]",,,,,,,,,accumulating not only in the myocardium but also in the liver adjacent to the myocardium to the same extent,1.5
"[18F]CCOc1cccc([P+](CCCc2ccccc2)(c2ccccc2)c2ccccc2)c1.[Br-] [[^18F]TAP-022, [^18F][3-(2-fluoroethoxy)phenyl]-(3-phenylpropyl)-diphenylphosphonium bromide]",4.98,,,accumulation of radioactivity in the myocardium was observed,more highly accumulates in the myocardium than in other adjacent organs,high-contrast myocardial images were obtained,,,,
[18F]c1ccc([P+](c2ccccc2)(c2ccccc2)c2ccccc2)cc1 [[^18F]FTPP],,,,,,,,,,9.2

# Continued, in another order:
ratio of radioactivity accumulations in the myocardium and liver (heart/liver ratio) [2],"accumulation in the heart ([3]; i.v., n=4)",heart/liver ratio ([3]; time point of 60 minutes),Structure (SMILES),accumulation of radioactivity in the myocardium (PET/CT images) [1],accumulation of labeled compound in the myocardium versus adjacent organs [2],contrast of myocardial images [1],accumulation of radioactivity in the heart (radioactivity-time curve) [4],disappearance of radioactivity from the liver (radioactivity-time curve) [4],accumulation in liver relative to myocardium [5],heart/liver ratio (comparison values of reference agents) [6]
2.70,,,"[18F]CCOc1ccc([P+](Cc2ccccc2)(c2ccccc2)c2ccccc2)cc1 [[^18F]TAP-001, Benzyl-[4-(2-[^18F]fluoroethoxy)phenyl]-diphenylphosphonium bromide]",accumulation of radioactivity in the myocardium was observed,more highly accumulates in the myocardium than in other adjacent organs,,,,,
9.40,highly accumulated in the heart,about 15.5,"[18F]CCOc1cccc([P+](Cc2ccccc2)(c2ccccc2)c2ccccc2)c1.[Br-] [[^18F]TAP-018, Benzyl[3-(2-[^18F]fluoroethoxy)phenyl]-diphenylphosphonium bromide]",accumulation of radioactivity in the myocardium was observed,more highly accumulates in the myocardium than in other adjacent organs,high-contrast myocardial images were obtained,a high level of radioactivity accumulated in the heart immediately after the administration,radioactivity disappeared rapidly from the liver until 10 minutes after the administration,,
4.56,,,"COc1ccc(C[P+](c2ccccc2)(c2ccccc2)c2cccc(OCC[18F])c2)cc1 [[^18F]TAP-019, [3-(2-[^18F]fluoroethoxy)phenyl]-(4-methoxyphenyl)methyl-diphenylphosphonium bromide]",accumulation of radioactivity in the myocardium was observed,more highly accumulates in the myocardium than in other adjacent organs,high-contrast myocardial images were obtained,,,,
